{"source": "patent KR20140086355A", "about": "“콜치신 유도체를 유효성분으로 포함하는 암의 예방 또는 치료용 조성물” (한국화학연구원, priority 2012, dated 2014)", "assay_type_in_all_cases": "cell-based", "key": {"[1]": {"test_system": "human colorectal cancer cells HCT116 [인간 대장암 세포, HCT116]", "test": "alamarBlue cell proliferation assay, human colorectal cancer cells HCT116", "conditions": "48 h, concentration dependence (Fig. 3: 100nM-1μM; Fig. 9)"}, "[2]": {"test_system": "PLK-1", "test": "Western blot of Plk-1 in HCT116 cells", "conditions": "HCT116, 48 h; listed as 콜치신"}, "[3]": {"test_system": "PLK-1", "test": "PLK-1 ELISA in HCT116 cells", "conditions": "HCT116, 48 h"}, "[4]": {"test_system": "human colorectal cancer cells [인간 대장암 세포]", "test": "Apoptosis induction in human colorectal cancer cells (Western blot)", "conditions": "listed as 콜치신"}}, "note": "“Also recorded” adds a separate entry of the source."}
{"smiles": "COc1cc2c(c(OC)c1OC)-c1ccc(OC)c(=O)cc1[C@@H](NC(C)=O)CC2", "note": "[H11-G04, Colchicine]", "values": [{"measurement": "inhibition of cell proliferation", "setting": "[1]", "result": "세포증식이 농도에 따라 유의적으로 억제되는 효과가 나타났다"}, {"measurement": "inhibition of Plk-1 expression", "setting": "[2]", "result": "콜치신이 Plk-1의 발현을 억제함; also recorded: Plk-1의 발현도 역시 억제된다"}, {"measurement": "Plk-1 concentration", "setting": "[3]", "result": "콜치신에 의해 Plk-1 농도가 감소함"}, {"measurement": "induction of apoptosis", "setting": "[4]", "result": "콜치신이 인간 대장암 세포의 사멸(apoptosis)를 유도함; also recorded: 세포사멸을 유도"}]}
